Target: T1, α-amylase (Homo sapiens, UniProt P04746)
T1 sequence (P04746 16-511): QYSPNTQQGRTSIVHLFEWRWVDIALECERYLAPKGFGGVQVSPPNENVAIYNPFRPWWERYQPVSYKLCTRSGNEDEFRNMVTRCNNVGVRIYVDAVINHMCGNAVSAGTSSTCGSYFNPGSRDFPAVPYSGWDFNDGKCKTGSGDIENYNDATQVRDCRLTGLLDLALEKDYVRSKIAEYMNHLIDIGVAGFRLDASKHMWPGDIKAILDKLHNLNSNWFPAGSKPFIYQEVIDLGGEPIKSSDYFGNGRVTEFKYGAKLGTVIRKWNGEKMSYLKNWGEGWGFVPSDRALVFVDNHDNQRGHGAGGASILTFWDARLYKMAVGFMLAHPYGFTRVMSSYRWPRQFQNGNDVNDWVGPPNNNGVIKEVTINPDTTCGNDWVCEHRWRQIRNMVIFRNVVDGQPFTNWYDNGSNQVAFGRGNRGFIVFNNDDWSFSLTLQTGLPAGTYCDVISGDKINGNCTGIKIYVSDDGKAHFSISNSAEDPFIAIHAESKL
Assay: α-Amylase inhibition assay
Format: biochemical

Row | SMILES | IC50 [nM]
1 | Clc1ccc2[nH]c(-c3cccc(OCc4ccccc4)c3)nc2c1 [Compound 29, 5-Chloro-2-(3^′-(benzyloxy)phenyl)-1H-benzo[d]imidazole] | 2470 ± 110
2 | Fc1ccc2[nH]c(-c3ccc(OCc4ccccc4)cc3)nc2c1 [Compound 31, 5-Fluoro-2-(4^′-(benzyloxy)phenyl)-1H-benzo[d]imidazole] | 2150 ± 60
3 | Cc1cc2nc(-c3ccc(OCc4ccccc4)cc3)[nH]c2cc1C [Compound 30, 5,6-Dimethyl-2-(4^′-(benzyloxy)phenyl)-1H-benzo[d]imidazole] | 2160 ± 70
4 | COc1cc(-c2nc3cc(Cl)ccc3[nH]2)ccc1OCc1ccccc1 [Compound 24, 5-Chloro-2-(4^′-(benzyloxy)-3^′-methoxyphenyl)-1H-benzo[d]imidazole] | 2160 ± 20

From PMC8427641 (ACS Omega, 2021)
